Data on nine compounds can be found in ChEMBL document CHEMBL5584280, “Optimization of Novel Pyrido-pyridazinone Derivatives as FER Tyrosine Kinase Inhibitors, Leading to the Potent DS08701581” (ACS Med Chem Lett, 2024).

Values after ≈ are worked out from the molar mass of the structure shown.

Data set [1] has as its system BaF3. Kind of data set: Inhibition of cell viability in mouse BaF3 cells incubated for 3 days by Cell Titer Glo assay. In kind it is functional. The conditions noted are these: BaF3, 72 h, time 3 day. In general terms: Cellular ATP, detected with luciferase, serves as a proxy for viable cell number.
Data set [2] has as its system BaF3. Kind of data set: Inhibition of cell viability in mouse BaF3 cells expressing FER incubated for 3 days by Cell Titer Glo assay. The conditions noted are these: BaF3, 72 h, time 3 day. In kind it is functional.
The nature of data set [3]: Metabolic stability in CD-1 mouse liver microsomes assessed as compound remaining at 1 uM incubated for 30 mins by LC-MS/MS analysis. The format is ADME, Microsome. The conditions noted are these: read-out: Stability.
Data set [4] deals with Serine/threonine-protein kinase Chk2 (Homo sapiens) (UniProt O96017). Kind of data set: Inhibition of CHEK2 (unknown origin) at 200 nM in presence of ATP by kinase profiling analysis relative to control.
Data set [5] deals with Leukocyte tyrosine kinase receptor (Homo sapiens) (UniProt P29376). In words: Inhibition of LTK (unknown origin) at 200 nM in presence of ATP by kinase profiling analysis relative to control.
Data set [6] is described as follows: Permeability co-efficient of compound at 5 uM incubated for 4 hrs by PAMPA. The format is ADME. The conditions noted are these: read-out: Peff. In general terms: The PAMPA barrier holds no transporters, so it reflects passive diffusion.
Data set [7] can be described thus: Solubility of compound in buffer at pH 6.8 incubated for 4 hrs by HPLC-UV analysis. The format is physicochemical.
Data set [8] can be described thus: Toxicity in BALB/cAJcl-nu/nu mouse xenografted with […] mouse BaF3 cells expressing FER at 6.25 to 100 mg/kg, po qd for 10 days. The format is organism-based. The conditions noted are these: in vivo, 240 h, dose 6.25-100 mg/kg, time 10 day. Background: A xenograft is tissue or cells of one species grown in another, often human tumour cells in immunodeficient mice.

Data set [9] has as its target T1, Testis-specific serine/threonine-protein kinase 1 (Homo sapiens) (UniProt Q9BXA7).
T1 sequence (whole entry): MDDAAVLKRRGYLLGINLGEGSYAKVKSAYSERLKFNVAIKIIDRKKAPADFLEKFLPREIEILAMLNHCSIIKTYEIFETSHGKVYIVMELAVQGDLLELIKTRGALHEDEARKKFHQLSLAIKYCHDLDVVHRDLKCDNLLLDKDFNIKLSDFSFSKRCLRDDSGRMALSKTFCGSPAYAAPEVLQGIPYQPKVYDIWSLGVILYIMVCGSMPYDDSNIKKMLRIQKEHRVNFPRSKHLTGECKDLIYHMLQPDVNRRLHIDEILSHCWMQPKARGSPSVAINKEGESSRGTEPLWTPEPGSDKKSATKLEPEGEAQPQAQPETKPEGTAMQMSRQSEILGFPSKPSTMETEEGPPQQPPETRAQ
In words: Inhibition of TSSK1B (unknown origin) at 200 nM in presence of ATP by kinase profiling analysis relative to control.

The nature of data set [10]: Total plasma clearance in BALB/cAnNCrlCrlj mouse at 1 mg/kg, iv. In kind it is ADME, organism-based.
Data set [11] can be described thus: Protein binding in BALB/c mouse serum at 10 ug/ml incubated for 4 hrs by equilibrium dialysis. The conditions noted are these: at 10 µg/mL, read-out: PB (converted). The format is ADME, cell-free.
The nature of data set [12]: Oral bioavailability in BALB/cAnNCrlCrlj mouse at 10 mg/kg. The format is ADME, organism-based. The conditions noted are these: in vivo.
Data set [13] can be described thus: Solubility of compound in FaSSIF incubated for 4 hrs by HPLC-UV analysis. In kind it is ADME.
The nature of data set [14]: AUC in BALB/cAnNCrlCrlj mouse at 10 mg/kg, po. The format is ADME, organism-based. The conditions noted are these: in vivo.
For data set [15], the target named is ALK tyrosine kinase receptor (Homo sapiens) (UniProt Q9UM73). Kind of data set: Inhibition of ALK (unknown origin) at 200 nM in presence of ATP by kinase profiling analysis relative to control.
The target of data set [16] is Receptor-type tyrosine-protein kinase FLT3 (Homo sapiens) (UniProt P36888). In words: Inhibition of FLT3 (unknown origin) at 200 nM in presence of ATP by kinase profiling analysis relative to control.
Data set [17] in a line: Cmax in BALB/cAnNCrlCrlj mouse at 10 mg/kg, po. The conditions noted are these: in vivo. In kind it is ADME, organism-based.
The target in data set [18] is Tyrosine-protein kinase SYK (Homo sapiens) (UniProt P43405). In words: Inhibition of SYK (unknown origin) at 200 nM in presence of ATP by kinase profiling analysis relative to control.
Data set [19] deals with Protein-tyrosine kinase 2-beta (Homo sapiens) (UniProt Q14289). Kind of data set: Inhibition of PTK2B (unknown origin) at 200 nM in presence of ATP by kinase profiling analysis relative to control.
Data set [20] deals with BaF3. In words: Antitumor activity against […] mouse BaF3 cells expressing FER xenografted in BALB/cAJcl-nu/nu mouse administered orally once a day for 4 days. The format is functional, cell-based. The conditions noted are these: dose 6.25-100 mg/kg, route po, time 4.0 day.
For the next data set, the species on record is Homo sapiens. Kind of data set: Inhibition of NTRK1 (unknown origin) at 200 nM in presence of ATP by kinase profiling analysis relative to control.
In data set [21] the target is Tyrosine-protein kinase Fer (Homo sapiens, UniProt P16591). Kind of data set: Inhibition of N-terminal His-tagged recombinant human FER using FL-Peptide22 as substrate incubated for 90 mins in presence of ATP.
The target of data set [22] is Mitogen-activated protein kinase kinase kinase kinase 4 (Homo sapiens) (UniProt O95819). Kind of data set: Inhibition of MAP4K4 (unknown origin) at 200 nM in presence of ATP by kinase profiling analysis relative to control.
Data set [23] has as its target Cyclin-dependent kinase 2 (Homo sapiens) (UniProt P24941). Kind of data set: Inhibition of CDK2 (unknown origin) at 200 nM in presence of ATP by kinase profiling analysis relative to control.
In data set [24] the target is Proto-oncogene tyrosine-protein kinase ROS (Homo sapiens) (UniProt P08922). In words: Inhibition of ROS1 (unknown origin) at 200 nM in presence of ATP by kinase profiling analysis relative to control.
The target in data set [25] is Macrophage colony-stimulating factor 1 receptor (Homo sapiens) (UniProt P07333). Kind of data set: Inhibition of CSF1R (unknown origin) at 200 nM in presence of ATP by kinase profiling analysis relative to control.
The target of data set [26] is Mast/stem cell growth factor receptor Kit (Homo sapiens) (UniProt P10721). Kind of data set: Inhibition of KIT (unknown origin) at 200 nM in presence of ATP by kinase profiling analysis relative to control.
The nature of data set [27]: Toxicity in BALB/cAJcl-nu/nu mouse xenografted with […] mouse BaF3 cells expressing FER at 100 mg/kg, po qd for 10 days. The format is organism-based. The conditions noted are these: in vivo, 240 h, time 10 day.

Serine/threonine-protein kinase Chk2 (Homo sapiens), sequence (O96017 whole entry): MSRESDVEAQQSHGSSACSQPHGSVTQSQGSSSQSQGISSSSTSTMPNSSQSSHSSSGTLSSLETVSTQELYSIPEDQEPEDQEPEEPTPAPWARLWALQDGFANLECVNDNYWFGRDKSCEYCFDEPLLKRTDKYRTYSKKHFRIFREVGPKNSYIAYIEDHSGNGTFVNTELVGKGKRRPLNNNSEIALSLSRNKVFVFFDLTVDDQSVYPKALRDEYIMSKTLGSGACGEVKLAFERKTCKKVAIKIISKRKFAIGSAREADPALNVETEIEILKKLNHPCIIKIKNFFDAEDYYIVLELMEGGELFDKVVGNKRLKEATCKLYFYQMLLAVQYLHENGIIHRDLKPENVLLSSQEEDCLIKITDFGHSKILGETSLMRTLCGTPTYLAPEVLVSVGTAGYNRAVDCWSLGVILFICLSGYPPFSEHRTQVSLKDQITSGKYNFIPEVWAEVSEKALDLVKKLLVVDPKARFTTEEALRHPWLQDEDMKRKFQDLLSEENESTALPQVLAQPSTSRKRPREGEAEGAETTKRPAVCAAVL
Receptor-type tyrosine-protein kinase FLT3 (Homo sapiens), sequence (P36888 whole entry): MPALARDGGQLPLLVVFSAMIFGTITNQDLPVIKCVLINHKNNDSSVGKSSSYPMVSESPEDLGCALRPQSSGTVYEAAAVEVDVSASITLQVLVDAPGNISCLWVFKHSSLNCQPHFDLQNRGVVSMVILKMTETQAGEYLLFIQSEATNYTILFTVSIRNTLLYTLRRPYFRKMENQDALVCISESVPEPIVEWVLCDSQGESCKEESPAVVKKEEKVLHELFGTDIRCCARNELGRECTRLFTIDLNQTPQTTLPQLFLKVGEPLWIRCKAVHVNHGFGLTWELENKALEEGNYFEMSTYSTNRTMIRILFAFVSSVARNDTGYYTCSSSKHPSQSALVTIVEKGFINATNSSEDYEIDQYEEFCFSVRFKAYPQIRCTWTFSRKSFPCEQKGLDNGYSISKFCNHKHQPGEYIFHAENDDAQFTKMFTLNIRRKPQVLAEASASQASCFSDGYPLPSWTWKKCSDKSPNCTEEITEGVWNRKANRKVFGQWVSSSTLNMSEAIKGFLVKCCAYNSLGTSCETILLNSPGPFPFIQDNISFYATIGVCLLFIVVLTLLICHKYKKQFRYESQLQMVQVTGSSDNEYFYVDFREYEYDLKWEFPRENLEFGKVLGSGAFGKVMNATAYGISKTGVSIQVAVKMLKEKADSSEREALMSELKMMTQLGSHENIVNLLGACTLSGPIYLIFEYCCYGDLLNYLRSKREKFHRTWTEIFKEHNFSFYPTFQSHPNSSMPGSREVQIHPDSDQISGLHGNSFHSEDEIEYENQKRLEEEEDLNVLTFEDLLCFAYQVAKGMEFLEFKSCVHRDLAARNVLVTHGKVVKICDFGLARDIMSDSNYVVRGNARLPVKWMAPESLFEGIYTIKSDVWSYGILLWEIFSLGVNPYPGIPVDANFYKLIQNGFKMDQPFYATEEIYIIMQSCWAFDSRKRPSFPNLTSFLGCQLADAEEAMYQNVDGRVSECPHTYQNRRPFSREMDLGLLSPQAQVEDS
Protein-tyrosine kinase 2-beta (Homo sapiens), sequence (Q14289 whole entry, looked up): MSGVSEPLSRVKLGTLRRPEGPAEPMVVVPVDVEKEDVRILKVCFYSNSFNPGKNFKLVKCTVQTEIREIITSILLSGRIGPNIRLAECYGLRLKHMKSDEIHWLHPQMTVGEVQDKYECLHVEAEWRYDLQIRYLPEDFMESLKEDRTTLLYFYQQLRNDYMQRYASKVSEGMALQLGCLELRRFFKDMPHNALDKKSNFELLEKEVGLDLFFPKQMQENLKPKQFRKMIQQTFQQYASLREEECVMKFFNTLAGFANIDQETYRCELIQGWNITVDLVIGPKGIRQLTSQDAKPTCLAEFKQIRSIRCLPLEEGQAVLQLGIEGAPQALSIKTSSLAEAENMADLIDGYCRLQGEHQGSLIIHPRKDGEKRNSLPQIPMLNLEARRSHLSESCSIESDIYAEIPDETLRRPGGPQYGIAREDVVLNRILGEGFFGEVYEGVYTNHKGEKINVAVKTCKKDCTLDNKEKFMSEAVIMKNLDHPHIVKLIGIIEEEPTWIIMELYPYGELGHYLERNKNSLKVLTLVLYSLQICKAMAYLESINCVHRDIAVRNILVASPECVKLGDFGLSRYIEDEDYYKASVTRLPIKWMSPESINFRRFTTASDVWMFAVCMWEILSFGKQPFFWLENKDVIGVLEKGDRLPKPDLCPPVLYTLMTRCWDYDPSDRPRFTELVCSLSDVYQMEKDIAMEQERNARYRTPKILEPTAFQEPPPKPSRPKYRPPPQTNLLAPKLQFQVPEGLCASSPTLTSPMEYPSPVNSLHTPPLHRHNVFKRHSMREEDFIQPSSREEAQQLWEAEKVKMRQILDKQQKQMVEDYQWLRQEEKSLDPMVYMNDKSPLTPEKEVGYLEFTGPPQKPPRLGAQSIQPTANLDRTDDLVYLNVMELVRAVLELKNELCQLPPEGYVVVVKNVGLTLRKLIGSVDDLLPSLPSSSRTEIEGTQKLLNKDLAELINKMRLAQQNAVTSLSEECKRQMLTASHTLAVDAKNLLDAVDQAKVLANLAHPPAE
ALK tyrosine kinase receptor (Homo sapiens), sequence (Q9UM73 19-1620 limits assumed): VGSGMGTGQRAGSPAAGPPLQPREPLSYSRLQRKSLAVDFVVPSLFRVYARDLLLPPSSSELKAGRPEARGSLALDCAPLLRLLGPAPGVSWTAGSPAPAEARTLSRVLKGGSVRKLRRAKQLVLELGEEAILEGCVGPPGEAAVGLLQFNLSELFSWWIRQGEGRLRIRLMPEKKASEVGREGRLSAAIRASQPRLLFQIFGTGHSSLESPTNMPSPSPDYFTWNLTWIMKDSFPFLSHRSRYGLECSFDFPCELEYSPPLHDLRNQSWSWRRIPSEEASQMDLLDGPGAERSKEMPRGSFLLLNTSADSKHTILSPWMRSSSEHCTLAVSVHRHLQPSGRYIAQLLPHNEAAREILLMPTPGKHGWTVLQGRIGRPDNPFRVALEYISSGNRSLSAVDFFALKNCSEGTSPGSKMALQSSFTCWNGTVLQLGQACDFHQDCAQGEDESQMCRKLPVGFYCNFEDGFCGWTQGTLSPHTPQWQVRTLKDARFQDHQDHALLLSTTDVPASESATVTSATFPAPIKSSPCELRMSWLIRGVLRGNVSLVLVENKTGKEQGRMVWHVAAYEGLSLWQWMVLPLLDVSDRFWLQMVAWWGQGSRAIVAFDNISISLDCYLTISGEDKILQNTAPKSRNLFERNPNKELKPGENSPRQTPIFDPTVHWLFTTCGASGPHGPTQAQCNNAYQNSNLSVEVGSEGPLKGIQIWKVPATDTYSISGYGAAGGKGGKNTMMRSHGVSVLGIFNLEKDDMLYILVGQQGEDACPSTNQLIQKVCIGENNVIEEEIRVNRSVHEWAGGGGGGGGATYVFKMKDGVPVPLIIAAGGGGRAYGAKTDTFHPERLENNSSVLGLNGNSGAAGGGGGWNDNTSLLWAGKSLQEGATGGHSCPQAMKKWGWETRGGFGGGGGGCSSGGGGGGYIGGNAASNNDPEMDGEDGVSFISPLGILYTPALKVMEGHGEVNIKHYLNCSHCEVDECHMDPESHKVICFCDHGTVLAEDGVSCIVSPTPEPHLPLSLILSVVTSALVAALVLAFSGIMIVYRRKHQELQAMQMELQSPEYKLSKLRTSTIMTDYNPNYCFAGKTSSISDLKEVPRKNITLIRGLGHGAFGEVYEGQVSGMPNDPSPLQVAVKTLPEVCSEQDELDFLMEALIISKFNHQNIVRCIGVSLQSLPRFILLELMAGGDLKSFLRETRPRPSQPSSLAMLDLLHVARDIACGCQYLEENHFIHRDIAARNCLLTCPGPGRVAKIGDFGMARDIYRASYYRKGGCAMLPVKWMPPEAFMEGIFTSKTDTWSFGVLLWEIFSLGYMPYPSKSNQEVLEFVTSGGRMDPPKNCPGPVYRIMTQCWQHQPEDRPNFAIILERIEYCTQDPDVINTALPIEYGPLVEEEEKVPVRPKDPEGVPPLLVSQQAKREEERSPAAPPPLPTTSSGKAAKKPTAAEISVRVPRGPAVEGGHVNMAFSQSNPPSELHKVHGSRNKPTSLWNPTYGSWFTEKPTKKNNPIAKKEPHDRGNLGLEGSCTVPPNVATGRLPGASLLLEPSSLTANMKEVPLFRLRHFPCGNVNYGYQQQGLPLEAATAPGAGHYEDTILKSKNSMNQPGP
Tyrosine-protein kinase Fer, sequence (P16591 whole entry): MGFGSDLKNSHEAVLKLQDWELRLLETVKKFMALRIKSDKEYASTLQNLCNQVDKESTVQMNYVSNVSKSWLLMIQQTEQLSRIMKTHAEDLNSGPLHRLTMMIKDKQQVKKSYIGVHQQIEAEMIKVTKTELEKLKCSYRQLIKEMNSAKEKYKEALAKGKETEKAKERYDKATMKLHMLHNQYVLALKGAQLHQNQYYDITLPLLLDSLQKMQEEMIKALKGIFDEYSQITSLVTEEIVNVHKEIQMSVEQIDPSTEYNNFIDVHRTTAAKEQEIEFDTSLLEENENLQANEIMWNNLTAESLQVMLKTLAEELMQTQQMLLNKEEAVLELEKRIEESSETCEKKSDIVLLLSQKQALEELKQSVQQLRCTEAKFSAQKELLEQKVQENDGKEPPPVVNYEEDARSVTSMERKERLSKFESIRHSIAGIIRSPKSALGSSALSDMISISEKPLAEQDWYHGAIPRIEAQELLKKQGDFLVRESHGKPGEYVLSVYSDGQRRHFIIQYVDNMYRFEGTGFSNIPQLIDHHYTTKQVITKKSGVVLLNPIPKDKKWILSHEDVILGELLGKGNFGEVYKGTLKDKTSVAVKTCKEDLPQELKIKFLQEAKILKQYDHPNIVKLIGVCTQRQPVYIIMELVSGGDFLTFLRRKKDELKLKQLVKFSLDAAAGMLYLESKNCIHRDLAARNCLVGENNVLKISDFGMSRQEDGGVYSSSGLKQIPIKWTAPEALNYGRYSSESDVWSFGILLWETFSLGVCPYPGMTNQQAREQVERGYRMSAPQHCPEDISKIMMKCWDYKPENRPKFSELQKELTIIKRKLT

In the case of `N#Cc1c(N[C@@H]2CCCC[C@@H]2N)nc(Nc2cccc(N3CCOCC3)c2)c2c(=O)[nH]ncc12`, the values for the GI50 in the data set with BaF3 [1] and with BaF3 [2] were 310 nM and 1.2 nM, respectively.

Take `CCOc1cccc(Nc2nc(NC3CCCCC3N)c(F)c3cn[nH]c(=O)c23)c1` (racemic): the GI50 (commonly the concentration that inhibits growth by half) in the data set with BaF3 [1] came to 1600 nM; in the data set with BaF3 [2], 50 nM.

Turning to `Cn1cc(Nc2nc(NC3CCCCC3N)c(F)c3cn[nH]c(=O)c23)cn1` (racemic), the GI50 came to 340 nM in the data set with BaF3 [1] and 57 nM in the data set with BaF3 [2].

For the compound `N#Cc1c(N[C@@H]2CCCC[C@@H]2N)nc(Nc2cccc(N3CC4(COC4)C3)c2)c2c(=O)[nH]ncc12`, the results for the GI50 in the data set with BaF3 [1] and with BaF3 [2] were 362 nM and 0.36 nM, respectively.

Consider `CN1CCN(c2cccc(Nc3nc(NC4CCCCC4N)c(F)c4cn[nH]c(=O)c34)c2)CC1` (racemic), for which the values for the concentration for 50% growth inhibition (GI50) with BaF3 [1] and with BaF3 [2] were 630 nM and 76 nM, respectively.

`C[C@@H]1CN(c2cccc(Nc3nc(N[C@@H]4CCCC[C@@H]4N)c(C#N)c4cn[nH]c(=O)c34)c2)C[C@H](C)O1`: the remaining at 0.5 h, 1 µM in [3] amounted to 85%. Moreover, the inhibition in [4], in data set [5], in data set [9], in data set [15], in [16] and in data set [18] was above 90% in each case. Moreover, the inhibition (commonly the percentage by which the read-out fell short of the control) in data set [19] is above 90%. Moreover, the Papp at 4 h, 5 µM in data set [6] was above 50 ×10⁻⁶ cm/s. The solubility (as a rule, the concentration that dissolves in the medium under given conditions) at 4 h in [7] was found to be 6.7 µg/mL (≈ 13.7 µM); in data set [13], 30 µg/mL (≈ 61.4 µM). For the same compound, the Activity entry in [8] was “Non-Toxic”; in the data set with BaF3 [20], “Dose-Dependent Effect”. Further, the clearance (in general, the rate of elimination divided by the concentration) in [10] stood at 13 mL/min/kg. Moreover, in data set [11], the fraction unbound at 4 h, 10 ug/ml is 0.03. The bioavailability (commonly dose-corrected exposure relative to a reference, in per cent) in data set [12] is 65%. The AUC (in general, concentration integrated over time) in [14] came out at 8200 ng·h/mL. Further, the 50% growth inhibitory concentration (GI50) in the data set on BaF3 [1] stood at 1000 nM; in the data set with BaF3 [2], 0.67 nM. Moreover, the Cmax (commonly the maximum level reached in the sampled fluid or tissue) in data set [17] was determined as 630 ng/mL.

Consider `Cc1cccc(Nc2nc(NC3CCCCC3N)c(C#N)c3cn[nH]c(=O)c23)c1` (centres undefined), for which the remaining at 0.5 h, 1 µM in [3] was found to be 96%. Moreover, the inhibition (in the data set filed under Homo sapiens; in data set [4]; in data set [22]; in [23]; in data set [9]; in data set [24]) was above 90% throughout. Moreover, the inhibition in [25], in data set [26], in data set [15], in [16], in [18] and in data set [19] was above 90% each time. The 50% inhibitory concentration (IC50) (as a rule, the concentration that inhibits the measured activity by half) in data set [21] amounted to 0.49 nM. For the same compound, in data set [6], the Papp at 4 h, 5 µM is above 50 ×10⁻⁶ cm/s. Moreover, the solubility at 4 h came to 0.9 µg/mL (≈ 2.31 µM) in data set [7] and 2.1 µg/mL (≈ 5.39 µM) in data set [13]. The compound further came in with a clearance in data set [10] of 12 mL/min/kg. Moreover, in data set [11], the fraction unbound at 4 h, 10 ug/ml is 0.01. The compound also gave a bioavailability in [12] of 34%. Further, in [14], the AUC stood at 4800 ng·h/mL. Besides, the Activity entry in [27] is on record as “Toxic”. The concentration for 50% growth inhibition (GI50) in the data set on BaF3 [1] was 220 nM; with BaF3 [2], 1.9 nM. Besides, the Cmax in data set [17] is 360 ng/mL.

For `N[C@H]1CCCC[C@H]1Nc1nc(Nc2cccc(N3CCOCC3)c2)c2c(=O)[nH]ncc2c1F`, the figures for the GI50 with BaF3 [1] and in the data set on BaF3 [2] were 1200 nM and 4.7 nM, respectively.

In the case of `Cc1cccc(Nc2nc(NC3CCCCC3N)c(F)c3cn[nH]c(=O)c23)c1` (racemic), the GI50 in the data set on BaF3 [1] was 1230 nM; with BaF3 [2] it was 30 nM.
